Laboratory results: ChEMBL document CHEMBL1137966, “Thrombin inhibitors built on an azaphenylalanine scaffold” (Bioorg Med Chem Lett, 2004)

Legend:
[1] = target: Serine protease 1 (Homo sapiens, UniProt P07477); assay: In vitro inhibition of trypsin
[2] = target: Coagulation factor X (Homo sapiens, UniProt P00742); assay: In vitro inhibition of Coagulation factor X
[3] = target: Prothrombin (Homo sapiens, UniProt P00734)
Description: In vitro inhibition of human alpha-thrombin

Sequence of Serine protease 1 (P07477 whole entry): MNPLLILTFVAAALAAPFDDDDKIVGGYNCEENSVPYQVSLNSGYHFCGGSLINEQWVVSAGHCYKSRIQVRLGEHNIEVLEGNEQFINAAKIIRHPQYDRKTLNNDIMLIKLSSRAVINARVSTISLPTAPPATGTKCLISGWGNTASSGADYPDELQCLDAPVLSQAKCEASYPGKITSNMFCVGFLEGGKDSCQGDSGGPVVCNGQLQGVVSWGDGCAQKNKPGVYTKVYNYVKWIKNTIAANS
Sequence of Coagulation factor X (P00742 41-179 limits assumed): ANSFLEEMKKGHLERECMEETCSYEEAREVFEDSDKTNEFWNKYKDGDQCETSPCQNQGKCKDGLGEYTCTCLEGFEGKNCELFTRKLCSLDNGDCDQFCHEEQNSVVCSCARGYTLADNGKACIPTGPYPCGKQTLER
Sequence of Coagulation factor X (P00742 235-488 limits assumed): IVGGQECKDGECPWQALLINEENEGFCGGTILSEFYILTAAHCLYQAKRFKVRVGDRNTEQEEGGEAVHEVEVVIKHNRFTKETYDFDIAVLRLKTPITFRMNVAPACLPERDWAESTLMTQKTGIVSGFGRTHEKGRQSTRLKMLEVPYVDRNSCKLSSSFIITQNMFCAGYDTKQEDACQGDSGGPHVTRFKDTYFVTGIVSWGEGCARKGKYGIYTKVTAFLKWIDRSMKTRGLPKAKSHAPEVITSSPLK

**Q.** Which Ki [1] does the source give for N=C(N)c1ccc(CN(NS(=O)(=O)c2ccc3ccccc3c2)C(=O)N2CCCCCC2)cc1 here?
**A.** 10 µM

**Q.** And the Ki [2]?
**A.** 69 µM

**Q.** What does the source list for COc1ccc2cc(S(=O)(=O)NN(Cc3cccc(C(=N)NO)c3)C(=O)N3CCCCCC3)ccc2c1?
**A.** Ki [1]: 17 µM; Ki [2]: 103 µM

**Q.** How did the Ki [1] turn out when COc1ccc2cc(S(=O)(=O)NN(Cc3ccc(C(=N)N)cc3)C(=O)N3CCC(C)CC3)ccc2c1 was run?
**A.** 18 µM

**Q.** And the Ki [2]?
**A.** > 75 µM

**Q.** And the Ki [3]?
**A.** 45 nM

**Q.** N/C(=N\O)c1ccc(CN(NS(=O)(=O)c2ccc3ccccc3c2)C(=O)N2CCCCC2)cc1 was tested. Which Ki [1] did it give?
**A.** > 68 µM

**Q.** What about the Ki [2] of the same compound?
**A.** > 75 µM

**Q.** With CC1CCN(C(=O)N(Cc2cccc(C(=N)N)c2)NS(=O)(=O)c2ccc3ccccc3c2)CC1 as the compound, how does the Ki [1] read?
**A.** 0.11 µM

**Q.** And the Ki [2]?
**A.** 5.3 µM

**Q.** How did the Ki [1] turn out when CC1CCCCN1C(=O)N(Cc1ccc(C(=N)NO)cc1)NS(=O)(=O)c1ccc2ccccc2c1 (stereo unspecified) was run?
**A.** 45 µM

**Q.** And the Ki [2]?
**A.** > 75 µM

**Q.** And the Ki [3]?
**A.** 430 nM

**Q.** For N/C(=N\O)c1ccc(CN(NS(=O)(=O)c2ccc(-c3ccccc3)cc2)C(=O)N2CCCCCC2)cc1, which Ki [1] is on record?
**A.** > 400 µM

**Q.** And the Ki [3]?
**A.** 1600 nM

**Q.** What does the source list for CC1CCN(C(=O)N(Cc2cccc(C(=N)NO)c2)NS(=O)(=O)c2ccc3ccccc3c2)CC1?
**A.** Ki [1]: > 68 µM; Ki [2]: > 75 µM

**Q.** N=C(N)c1cccc(CN(NS(=O)(=O)c2ccc3ccccc3c2)C(=O)N2CCCCCC2)c1 was tested. Which Ki [1] did it give?
**A.** 0.14 µM

**Q.** What about the Ki [2] of the same compound?
**A.** 3.9 µM

**Q.** Which results are given for N/C(=N\O)c1cccc(CN(NS(=O)(=O)c2ccc3ccccc3c2)C(=O)N2CCCCCC2)c1?
**A.** Ki [1]: 32 µM; Ki [2]: > 75 µM

**Q.** With N/C(=N\O)c1ccc(CN(NS(=O)(=O)c2ccc3ccccc3c2)C(=O)N2CCCCCC2)cc1 as the compound, how does the Ki [1] read?
**A.** 13 µM

**Q.** What about the Ki [2] of the same compound?
**A.** > 75 µM

**Q.** And the Ki [3]?
**A.** 210 nM

**Q.** With COc1ccc2cc(S(=O)(=O)NN(Cc3ccc(C(=N)NO)cc3)C(=O)N3CCC(C)CC3)ccc2c1 as the compound, how does the Ki [1] read?
**A.** > 68 µM

**Q.** What about the Ki [2] of the same compound?
**A.** > 75 µM

**Q.** What about the Ki [3] of the same compound?
**A.** 380 nM

**Q.** Which results are given for CC1CCCCN1C(=O)N(Cc1ccc(C(=N)N)cc1)NS(=O)(=O)c1ccc2ccccc2c1 (stereo unspecified)?
**A.** Ki [1]: 26 µM; Ki [2]: 53 µM; Ki [3]: 85 nM

**Q.** Which results are given for CC1CCN(C(=O)N(Cc2ccc(C(=N)NO)cc2)NS(=O)(=O)c2ccc3ccccc3c2)CC1?
**A.** Ki [1]: > 68 µM; Ki [2]: > 75 µM; Ki [3]: 770 nM

**Q.** For N=C(N)c1ccc(CN(NS(=O)(=O)c2ccc3ccccc3c2)C(=O)N2CCCCC2)cc1, which Ki [1] is on record?
**A.** 13 µM

**Q.** And the Ki [2]?
**A.** 66 µM

**Q.** And the Ki [3]?
**A.** 95 nM

**Q.** COc1ccc2cc(S(=O)(=O)NN(Cc3cccc(C(=N)NO)c3)C(=O)N3CCCCC3C)ccc2c1 (stereo unspecified) was tested. Which Ki [1] did it give?
**A.** 47 µM

**Q.** What about the Ki [2] of the same compound?
**A.** 111 µM

**Q.** And the Ki [3]?
**A.** 4200 nM

**Q.** What does the source list for COc1ccc2cc(S(=O)(=O)NN(Cc3cccc(C(=N)N)c3)C(=O)N3CCCCCC3)ccc2c1?
**A.** Ki [1]: 0.053 µM; Ki [2]: 3 µM

**Q.** Which results are given for N=C(N)c1ccc(CN(NS(=O)(=O)c2ccc(-c3ccccc3)cc2)C(=O)N2CCCCCC2)cc1?
**A.** Ki [1]: 23 µM; Ki [3]: 150 nM

**Q.** CC1CCCCN1C(=O)N(Cc1cccc(C(=N)NO)c1)NS(=O)(=O)c1ccc2ccccc2c1 (stereo unspecified) was tested. Which Ki [1] did it give?
**A.** 67 µM

**Q.** What about the Ki [2] of the same compound?
**A.** 5.4 µM
